The record followed here is patent US12291516B2, “Substituted 1-amino-1H-imidazole-5-carboxamide as Bruton's tyrosine kinase inhibitors” (Henan Zhiwei Biomedicine Co., Ltd., priority 2019, dated 2025).

The target of this experiment is BTK (Homo sapiens (Human), UniProt Q06187). In words: BTK inhibition assay by Reaction Biology Corporation (33P-ATP, filter-binding). Type of experiment: biochemical. Particulars: footnote a: from Reaction Biology Corporation. Here is the method:
BTK inhibition Assay and selectivity Assay The assay was conducted either a by a third party (Reaction Biology Corporation, PA, USA) or in house.
a) Reagent and Procedure by Reaction Biology Corporation:
Base Reaction buffer; 20 mM Hepes (pH 7.5), 10 mM MgCl2, 1 mM EGTA, 0.02%. Brij35, 0.02 mg/ml BSA, 0.1 mM Na3VO4, 2 mM DTT, 1% DMSO. Required cofactors were added individually to each kinase reaction. Compound handling: testing compounds were dissolved in 100% DMSO to specific concentration. The serial dilution was conducted by Integra Viaflo Assist in DMSO.
The substrate was prepared in freshly prepared reaction buffer of above and required cofactors were added to the substrate solution. The kinase was delivered to the substrate solution and the mixture was gently mixed. Testing compounds in 100% DMSO was added to the kinase reaction mixture by Acoustic technology (Echo550; nanoliter range) and the new mixture was incubated for 20 min at room temperature. Then ^33P-ATP (Specific activity 10 μCi/μl) was added to the reaction mixture to initiate the reaction and the mixture was incubated for 2 hours at room temperature. The radioactivity was detected by filter-binding method and the kinase activity data was expressed as the percent of remaining kinase activity in test sample compared to vehicle (dimethyl sulfoxide) reaction. IC50 values and curve fits were obtained using Prism (GraphPad Software). The result is outlined in Table-I

Structures are written as SMILES.

Usually IC50 stands for the concentration that gives 50% inhibition.

Chain of BTK (Q06187 whole entry): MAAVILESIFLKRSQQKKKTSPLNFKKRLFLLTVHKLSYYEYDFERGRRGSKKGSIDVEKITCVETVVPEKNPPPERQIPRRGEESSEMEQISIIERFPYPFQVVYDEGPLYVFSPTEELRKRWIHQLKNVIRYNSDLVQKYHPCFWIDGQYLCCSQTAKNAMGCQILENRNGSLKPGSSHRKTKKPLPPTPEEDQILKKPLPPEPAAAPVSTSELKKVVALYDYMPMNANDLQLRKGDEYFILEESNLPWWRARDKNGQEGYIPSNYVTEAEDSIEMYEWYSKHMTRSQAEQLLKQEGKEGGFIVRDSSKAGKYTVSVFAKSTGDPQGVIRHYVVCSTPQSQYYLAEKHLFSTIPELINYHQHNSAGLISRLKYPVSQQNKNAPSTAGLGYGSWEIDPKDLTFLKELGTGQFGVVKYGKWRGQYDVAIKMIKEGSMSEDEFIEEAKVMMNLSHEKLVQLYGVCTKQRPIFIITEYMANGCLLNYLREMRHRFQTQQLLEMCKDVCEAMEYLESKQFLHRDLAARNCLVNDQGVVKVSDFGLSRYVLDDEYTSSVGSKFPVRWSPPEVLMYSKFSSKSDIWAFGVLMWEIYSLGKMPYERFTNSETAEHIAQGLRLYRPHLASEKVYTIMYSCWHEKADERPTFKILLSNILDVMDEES

The molecule `CC#CC(=O)N1CCCC[C@H]1c1nc(-c2ccc(C(=O)Nc3cc(Br)ccn3)cc2)c(C(N)=O)n1N` [Example 88, (S)-1-amino-4-(4-((4-bromopyridin-2-yl)carbamoyl)phenyl)-2-(1-(but-2-ynoyl)piperidin-2-yl)-1H-imidazole-5-carboxamide] had an IC50 of 0.0226 µM. For `C=CC(=O)N1CCCC[C@H]1c1nc(-c2ccc(C(=O)Nc3cc(Br)ccn3)cc2)c(C(N)=O)n1N` [Example 87, (S)-2-(1-acryloylpiperidin-2-yl)-1-amino-4-(4-((4-bromopyridin-2-yl)carbamoyl)phenyl)-1H-imidazole-5-carboxamide], the IC50 was 0.00438 µM. Next, `C=CC(=O)N1CCCC[C@H]1c1nc(-c2ccc(C(=O)Nc3ccc(Cl)cn3)cc2)c(C(N)=O)n1N` [Example 86, (S)-2-(1-acryloylpiperidin-2-yl)-1-amino-4-(4-((5-chloropyridin-2-yl)carbamoyl)phenyl)-1H-imidazole-5-carboxamide]: 0.0292 µM; `CCc1ccnc(NC(=O)c2ccc(-c3nc([C@@H]4CCCN4C(=O)C=C(C)C)n(N)c3C(N)=O)cc2)c1` [Example 37, (S)-1-amino-4-(4-((4-ethylpyridin-2-yl)carbamoyl)phenyl)-2-(1-(3-methylbut-2-enoyl)pyrrolidin-2-yl)-1H-imidazole-5-carboxamide]: 2.21 µM; `C#CC(=O)N1CCC[C@H]1c1nc(-c2ccc(C(=O)Nc3ccccn3)cc2)c(C(N)=O)n1N` [Example 7, (S)-1-amino-2-(1-propioloylpyrrolidin-2-yl)-4-(4-(pyridin-2-ylcarbamoyl)phenyl)-1H-imidazole-5-carboxamide]: 0.085 µM.

`C=CC(=O)N1CCCC[C@H]1c1nc(-c2ccc(C(=O)Nc3cc(-c4ccc(F)cc4)ccn3)cc2)c(C(N)=O)n1N` [Example 91, (S)-2-(1-acryloylpiperidin-2-yl)-1-amino-4-(4-((4-(4-fluorophenyl)pyridin-2-yl)carbamoyl)phenyl)-1H-imidazole-5-carboxamide]: the IC50 came to 0.00497 µM. Under `C=CC(=O)N1CCCC[C@H]1c1nc(-c2ccc(C(=O)Nc3cc(CC)ccn3)cc2)c(C(N)=O)n1N` [Example 73, (S)-2-(1-acryloylpiperidin-2-yl)-1-amino-4-(4-((4-ethylpyridin-2-yl)carbamoyl)phenyl)-1H-imidazole-5-carboxamide] stands 0.00968 µM.

As for `C=CC(=O)N1CCCC[C@H]1c1nc(-c2ccc(C(=O)Nc3nccs3)cc2)c(C(N)=O)n1N` [Example 105, (S)-2-(1-acryloylpiperidin-2-yl)-1-amino-4-(4-(thiazol-2-ylcarbamoyl)phenyl)-1H-imidazole-5-carboxamide], the IC50 stood at 0.0187 µM.

In the case of `C#CC(=O)N1CCC[C@H]1c1nc(-c2ccc(C(=O)Nc3cc(OC)ccn3)cc2)c(C(N)=O)n1N` [Example 33, (S)-1-amino-4-(4-((4-methoxypyridin-2-yl)carbamoyl)phenyl)-2-(1-propioloylpyrrolidin-2-yl)-1H-imidazole-5-carboxamide], the IC50 amounted to 0.0135 µM. Under `C=CC(=O)N1CCC[C@@H](c2nc(-c3ccc(C(=O)Nc4cc(CC)ccn4)cc3)c(C(N)=O)n2N)C1` [Example 93, (R)-2-(1-acryloylpiperidin-3-yl)-1-amino-4-(4-((4-ethylpyridin-2-yl)carbamoyl)phenyl)-1H-imidazole-5-carboxamide] stands 0.0146 µM; under `C=CC(=O)N1CCCC[C@H]1c1nc(-c2ccc(C(=O)Nc3cc(I)ccn3)cc2)c(C(N)=O)n1N` [Example 89, (S)-2-(1-acryloylpiperidin-2-yl)-1-amino-4-(4-((4-iodopyridin-2-yl)carbamoyl)phenyl)-1H-imidazole-5-carboxamide], 0.00612 µM.
